Measured values published in patent US20250176542A1, “Antibacterial Composition” (LG Chem, Ltd., priority 2022, published 2025).

Tests used:
[1] = system: E. coli bacteria; test: Bacterial proliferation inhibition rate measurement (Method 1); assay type: cell-based; details: 0.04 g in 20 mL nutrient broth inoculated with 3,000±300 CFU/mL, 37° C., 24 hours, absorbance at 600 nm
Protocol: After 0.04 g of the antibacterial composition is added to 20 mL of a nutrient broth culture solution inoculated with 3,000±300CFU/mL of bacterial strain, from the culture solution of an experimental group in which the resulting mixture is incubated at 37° C. in a shaking incubator for 24 hours, the absorbance at a wavelength of 600 nm is measured using a UV/Vis spectrophotometer, • the antibacterial composition is not added to 20 mL of a nutrient broth culture solution inoculated with 3,000±300CFU/mL of bacterial strain, from the culture solution of a control in which the nutrient broth culture solution is incubated at 37° C. for 24 hours, the absorbance at a wavelength of 600 nm is measured using a UV/Vis spectrophotometer, and • from the absorbance of the experimental group and the absorbance of the control group, the bacterial proliferation inhibition rate (%) of the test bacteria is calculated using the following Equation 1.
In the present experiment, the bacterial proliferation inhibition rate was measured according to the following Method 1. In this case, E. coli bacteria were used.

[2] = Primary thermal decomposition measurement (thermogravimetric analyzer); assay type: physicochemical; details: N2 atmospheric environment, extrapolated onset of first mass reduction section
Text: The primary thermal decomposition temperature may be defined as an extrapolated intersection point between a starting mass reference line and the tangent line of the maximum slope point in the first mass reduction section of a mass loss curve measured by a thermogravimetric analyzer in an N2 atmospheric environment.
A thermogravimetric analyzer (TGA2 manufactured by Mettler Toledo) was used in order to perform an experiment on the primary thermal decomposition temperature of the antibacterial compositions of Examples 1 to 13 and Comparative Example 1.
In the present experiment, the primary thermal decomposition temperature may be defined as an extrapolated intersection point between a starting mass reference line and the tangent line of the maximum slope point in the first mass reduction section of a mass loss curve measured by a thermogravimetric analyzer in an N2 atmospheric environment. In the present disclosure, it was determined that when the primary thermal decomposition temperature of the antibacterial composition has a value higher than the primary thermal decomposition temperature of the material before anion substitution, the heat resistance has increased.

SMILES | Bacterial proliferation inhibition rate [1] | Primary thermal decomposition temperature [2]
C=Cc1ccc(C[N+](C)(C)CCCCCCCCCCCC)cc1.[Cl-] [Comparative Example 1] | 96.3% | 
C=Cc1ccc(C[N+](C)(C)CCCCCCCCCCCC)cc1.O=S(=O)([O-])C(F)(F)F [Example 1] |  | 369 °C
